Series [1] deals with T1, Testis-specific serine/threonine-protein kinase 2 (Homo sapiens) (UniProt Q96PF2).
T1 sequence (whole entry): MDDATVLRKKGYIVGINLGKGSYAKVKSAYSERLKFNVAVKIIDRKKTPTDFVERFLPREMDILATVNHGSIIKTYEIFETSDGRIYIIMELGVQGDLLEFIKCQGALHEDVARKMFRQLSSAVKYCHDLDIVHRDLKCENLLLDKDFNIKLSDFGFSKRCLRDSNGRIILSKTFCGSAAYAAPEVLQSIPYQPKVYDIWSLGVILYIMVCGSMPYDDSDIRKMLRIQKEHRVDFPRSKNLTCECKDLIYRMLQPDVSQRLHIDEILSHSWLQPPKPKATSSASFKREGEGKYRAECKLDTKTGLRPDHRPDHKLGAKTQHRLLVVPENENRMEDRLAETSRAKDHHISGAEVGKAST
Put plainly: Inhibition of STK22B (unknown origin) at 500 nM.

Series [2] concerns the target Epidermal growth factor receptor (Homo sapiens, UniProt P00533). The experiment in a line: Inhibition of EGFR (unknown origin) by Z -LYTE assay.
In series [3] the target is Tyrosine-protein kinase CSK (Homo sapiens) (UniProt P41240). The experiment in a line: Inhibition of CSK (unknown origin) at 500 nM.
Tyrosine-protein kinase CSK (Homo sapiens), sequence (P41240 2-450 limits assumed): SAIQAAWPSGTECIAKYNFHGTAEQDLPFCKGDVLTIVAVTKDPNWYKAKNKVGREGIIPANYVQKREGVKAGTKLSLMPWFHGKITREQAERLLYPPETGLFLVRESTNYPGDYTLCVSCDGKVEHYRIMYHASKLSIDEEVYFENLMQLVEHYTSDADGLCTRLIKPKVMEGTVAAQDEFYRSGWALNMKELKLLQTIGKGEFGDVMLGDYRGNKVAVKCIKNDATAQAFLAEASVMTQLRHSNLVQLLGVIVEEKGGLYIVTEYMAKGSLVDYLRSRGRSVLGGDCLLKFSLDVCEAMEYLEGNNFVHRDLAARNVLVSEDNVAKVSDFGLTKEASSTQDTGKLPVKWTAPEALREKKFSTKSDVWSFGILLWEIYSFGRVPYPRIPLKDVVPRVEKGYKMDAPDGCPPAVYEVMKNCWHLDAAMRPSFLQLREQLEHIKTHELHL
Series [4] has as its target T2, Serine/threonine-protein kinase Chk1 (Homo sapiens) (UniProt O14757).
T2 sequence (whole entry): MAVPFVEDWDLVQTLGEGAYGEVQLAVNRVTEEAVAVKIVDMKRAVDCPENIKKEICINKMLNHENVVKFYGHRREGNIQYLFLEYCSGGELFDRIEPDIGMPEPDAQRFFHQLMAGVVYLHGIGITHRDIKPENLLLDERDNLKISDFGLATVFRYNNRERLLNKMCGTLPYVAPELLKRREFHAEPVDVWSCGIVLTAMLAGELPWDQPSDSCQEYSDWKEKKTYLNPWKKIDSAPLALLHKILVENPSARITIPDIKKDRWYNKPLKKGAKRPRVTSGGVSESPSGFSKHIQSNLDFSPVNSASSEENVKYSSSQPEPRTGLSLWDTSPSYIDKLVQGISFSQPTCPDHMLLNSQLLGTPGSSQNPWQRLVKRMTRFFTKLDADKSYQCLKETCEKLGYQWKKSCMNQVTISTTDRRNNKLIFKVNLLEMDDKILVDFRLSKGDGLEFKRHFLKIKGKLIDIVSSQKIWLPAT
Put plainly: Inhibition of CHEK1 (unknown origin) at 500 nM.

Series [5] deals with Tyrosine-protein kinase JAK2 (Homo sapiens) (UniProt O60674). Put plainly: Inhibition of JAK2 (unknown origin) at 500 nM.
Series [6] concerns the target Protein kinase C alpha type (Homo sapiens) (UniProt P17252). Put plainly: Inhibition of PRKCA (unknown origin) at 500 nM.
For series [7], the target named is Mitogen-activated protein kinase 8 (Homo sapiens) (UniProt P45983). Put plainly: Inhibition of MAPK8 (unknown origin) at 500 nM.
Mitogen-activated protein kinase 8 (Homo sapiens), sequence (P45983 whole entry): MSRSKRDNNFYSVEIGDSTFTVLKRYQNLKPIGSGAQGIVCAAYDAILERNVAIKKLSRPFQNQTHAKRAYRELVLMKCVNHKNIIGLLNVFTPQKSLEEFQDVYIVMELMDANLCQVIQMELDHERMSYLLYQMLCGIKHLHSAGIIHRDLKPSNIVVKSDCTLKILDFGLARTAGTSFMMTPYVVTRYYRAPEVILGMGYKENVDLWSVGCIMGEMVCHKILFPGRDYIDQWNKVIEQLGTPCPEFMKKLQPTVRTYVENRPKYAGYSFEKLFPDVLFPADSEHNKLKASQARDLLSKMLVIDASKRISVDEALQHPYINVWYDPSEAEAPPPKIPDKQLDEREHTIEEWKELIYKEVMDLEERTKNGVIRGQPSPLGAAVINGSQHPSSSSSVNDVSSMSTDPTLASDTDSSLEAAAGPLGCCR
Series [8] concerns the target Tyrosine-protein kinase ABL1 (Homo sapiens) (UniProt P00519). Put plainly: Inhibition of ABL1 (unknown origin) at 500 nM.
Series [9] addresses Tyrosine-protein kinase Lyn (Homo sapiens) (UniProt P07948). Put plainly: Inhibition of LYN B (unknown origin) at 500 nM.
In series [10] the target is Insulin-like growth factor 1 receptor (Homo sapiens) (UniProt P08069). Put plainly: Inhibition of IGF1R (unknown origin) at 500 nM.
The target of series [11] is Protein kinase C theta type (Homo sapiens) (UniProt Q04759). Put plainly: Inhibition of PRKCQ (unknown origin) at 500 nM.
Protein kinase C theta type (Homo sapiens), sequence (Q04759 whole entry, looked up): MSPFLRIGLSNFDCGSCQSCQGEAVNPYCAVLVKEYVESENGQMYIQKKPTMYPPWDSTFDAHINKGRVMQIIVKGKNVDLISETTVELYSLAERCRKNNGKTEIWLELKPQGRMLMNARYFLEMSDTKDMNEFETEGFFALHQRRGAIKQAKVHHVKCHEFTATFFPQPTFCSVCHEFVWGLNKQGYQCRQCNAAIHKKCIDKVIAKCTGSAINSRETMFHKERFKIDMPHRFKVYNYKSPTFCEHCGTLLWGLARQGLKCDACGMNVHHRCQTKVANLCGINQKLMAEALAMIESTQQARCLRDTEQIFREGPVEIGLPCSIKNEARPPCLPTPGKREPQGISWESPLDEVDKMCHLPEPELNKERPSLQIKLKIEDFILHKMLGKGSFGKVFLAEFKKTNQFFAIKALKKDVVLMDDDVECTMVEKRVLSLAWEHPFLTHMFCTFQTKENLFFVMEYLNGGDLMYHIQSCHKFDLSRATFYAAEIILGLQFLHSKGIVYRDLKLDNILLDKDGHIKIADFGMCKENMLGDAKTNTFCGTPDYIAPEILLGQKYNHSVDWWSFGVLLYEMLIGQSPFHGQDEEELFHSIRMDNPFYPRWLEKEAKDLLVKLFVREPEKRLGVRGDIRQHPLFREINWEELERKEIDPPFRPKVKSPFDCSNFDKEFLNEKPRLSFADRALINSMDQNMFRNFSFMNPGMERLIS
In series [12] the target is Angiopoietin-1 receptor (Homo sapiens) (UniProt Q02763). Put plainly: Inhibition of TEK (unknown origin) at 500 nM.
The target of series [13] is Dual specificity mitogen-activated protein kinase kinase 1 (Homo sapiens) (UniProt Q02750). Put plainly: Inhibition of MAP2K1 (unknown origin) at 500 nM.
The target in series [14] is Proto-oncogene tyrosine-protein kinase Src (Homo sapiens) (UniProt P12931). Put plainly: Inhibition of SRC (unknown origin) at 500 nM.
Series [15] concerns the target Vascular endothelial growth factor receptor 1 (Homo sapiens) (UniProt P17948). Put plainly: Inhibition of FLT1 (unknown origin) at 500 nM.
Series [16] has as its target T3, Inhibitor of nuclear factor kappa-B kinase subunit beta (Homo sapiens) (UniProt O14920).
T3 sequence (whole entry): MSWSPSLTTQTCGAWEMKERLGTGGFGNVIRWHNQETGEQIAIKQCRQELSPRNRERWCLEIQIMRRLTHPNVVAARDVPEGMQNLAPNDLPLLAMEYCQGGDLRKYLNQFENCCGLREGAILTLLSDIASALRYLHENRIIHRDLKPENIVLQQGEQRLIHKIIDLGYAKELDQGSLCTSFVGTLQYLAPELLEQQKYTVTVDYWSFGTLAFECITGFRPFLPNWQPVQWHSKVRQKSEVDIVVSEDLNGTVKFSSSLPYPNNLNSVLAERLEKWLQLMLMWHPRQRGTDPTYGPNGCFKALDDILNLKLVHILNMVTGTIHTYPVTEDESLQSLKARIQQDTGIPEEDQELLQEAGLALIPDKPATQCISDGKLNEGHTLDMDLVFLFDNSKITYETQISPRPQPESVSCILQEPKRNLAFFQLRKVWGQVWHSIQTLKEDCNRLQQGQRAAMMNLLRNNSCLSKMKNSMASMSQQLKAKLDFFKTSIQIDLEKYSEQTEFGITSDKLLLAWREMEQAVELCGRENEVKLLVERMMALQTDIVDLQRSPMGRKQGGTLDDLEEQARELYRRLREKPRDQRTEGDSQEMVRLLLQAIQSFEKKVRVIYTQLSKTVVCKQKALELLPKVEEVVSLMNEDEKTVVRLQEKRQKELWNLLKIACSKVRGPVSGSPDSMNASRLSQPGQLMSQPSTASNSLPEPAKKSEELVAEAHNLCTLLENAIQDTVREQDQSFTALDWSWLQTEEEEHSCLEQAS
The experiment in a line: Inhibition of IKBKB (unknown origin) at 500 nM.

Series [17] addresses Mitogen-activated protein kinase 14 (Homo sapiens) (UniProt Q16539). The experiment in a line: Inhibition of MAPK14 (unknown origin) at 500 nM.
Series [18] concerns the target Tyrosine-protein kinase SYK (Homo sapiens) (UniProt P43405). The experiment in a line: Inhibition of SYK (unknown origin) at 500 nM.
Series [19] has as its target Serine/threonine-protein kinase pim-2 (Homo sapiens) (UniProt Q9P1W9). Put plainly: Inhibition of PIM2 (unknown origin) at 500 nM.
Series [20] has as its target Tyrosine-protein kinase Fyn (Homo sapiens) (UniProt P06241). Put plainly: Inhibition of FYN (unknown origin) at 500 nM.
Series [21] has as its target Tyrosine-protein kinase HCK (Homo sapiens) (UniProt P08631). The experiment in a line: Inhibition of HCK (unknown origin) at 500 nM.
Series [22] deals with Hepatocyte growth factor receptor (Homo sapiens) (UniProt P08581). The experiment in a line: Inhibition of MET (unknown origin) at 500 nM.
Hepatocyte growth factor receptor (Homo sapiens), sequence (P08581 whole entry): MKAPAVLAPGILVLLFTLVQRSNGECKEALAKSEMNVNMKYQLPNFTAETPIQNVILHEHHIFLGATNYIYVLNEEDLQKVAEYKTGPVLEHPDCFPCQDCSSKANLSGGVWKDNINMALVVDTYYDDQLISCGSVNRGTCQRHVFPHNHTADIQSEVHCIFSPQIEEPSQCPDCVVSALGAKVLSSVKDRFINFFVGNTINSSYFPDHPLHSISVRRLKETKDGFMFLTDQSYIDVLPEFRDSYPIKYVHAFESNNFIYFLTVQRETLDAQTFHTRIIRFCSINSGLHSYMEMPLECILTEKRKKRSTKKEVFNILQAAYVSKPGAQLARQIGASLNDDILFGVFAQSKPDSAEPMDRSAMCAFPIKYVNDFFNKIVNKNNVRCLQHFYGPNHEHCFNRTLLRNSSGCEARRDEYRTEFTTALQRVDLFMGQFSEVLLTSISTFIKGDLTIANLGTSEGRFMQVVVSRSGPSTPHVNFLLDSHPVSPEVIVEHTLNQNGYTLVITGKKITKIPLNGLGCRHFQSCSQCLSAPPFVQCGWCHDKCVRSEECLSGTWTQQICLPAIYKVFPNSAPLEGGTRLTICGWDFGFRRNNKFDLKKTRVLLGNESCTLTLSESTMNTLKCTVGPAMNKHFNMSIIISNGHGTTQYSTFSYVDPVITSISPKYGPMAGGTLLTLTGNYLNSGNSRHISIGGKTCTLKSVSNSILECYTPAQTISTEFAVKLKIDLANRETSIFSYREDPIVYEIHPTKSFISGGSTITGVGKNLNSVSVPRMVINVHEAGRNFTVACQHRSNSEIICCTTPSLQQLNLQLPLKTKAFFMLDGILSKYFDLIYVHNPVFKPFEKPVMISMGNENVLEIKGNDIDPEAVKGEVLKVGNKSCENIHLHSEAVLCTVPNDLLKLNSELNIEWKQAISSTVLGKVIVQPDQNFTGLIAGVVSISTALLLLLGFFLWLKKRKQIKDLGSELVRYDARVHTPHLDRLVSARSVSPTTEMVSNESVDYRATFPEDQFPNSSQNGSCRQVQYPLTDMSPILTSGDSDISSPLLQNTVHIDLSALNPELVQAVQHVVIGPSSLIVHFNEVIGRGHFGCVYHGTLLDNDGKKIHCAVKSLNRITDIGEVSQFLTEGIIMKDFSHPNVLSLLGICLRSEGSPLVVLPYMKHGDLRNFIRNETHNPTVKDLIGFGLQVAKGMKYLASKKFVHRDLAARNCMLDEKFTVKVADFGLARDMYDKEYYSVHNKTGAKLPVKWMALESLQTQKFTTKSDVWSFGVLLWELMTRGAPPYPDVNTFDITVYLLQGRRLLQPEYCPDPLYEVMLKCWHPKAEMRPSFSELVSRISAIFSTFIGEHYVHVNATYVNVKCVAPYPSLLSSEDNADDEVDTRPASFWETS
Series [23] is described as follows: Half-life in human liver microsomes at 3 uM by LC-MS/MS analysis. The class given is ADME. A general note: Liver microsomes are a subcellular fraction often used to study metabolism.

pIC50: −log10 of the molar value.

Serine/threonine-protein kinase pim-2 (Homo sapiens), sequence (Q9P1W9 whole entry, looked up): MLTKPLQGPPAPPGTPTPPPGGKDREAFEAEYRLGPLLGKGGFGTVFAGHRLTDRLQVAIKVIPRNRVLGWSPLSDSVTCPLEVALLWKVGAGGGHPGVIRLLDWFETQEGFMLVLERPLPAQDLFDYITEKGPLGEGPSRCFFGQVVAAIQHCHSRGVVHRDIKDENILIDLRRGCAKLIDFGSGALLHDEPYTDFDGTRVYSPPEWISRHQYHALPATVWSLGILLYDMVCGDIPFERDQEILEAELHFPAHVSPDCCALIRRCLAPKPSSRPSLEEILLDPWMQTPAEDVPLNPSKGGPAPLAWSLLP
Tyrosine-protein kinase Lyn (Homo sapiens), sequence (P07948 2-512 limits assumed): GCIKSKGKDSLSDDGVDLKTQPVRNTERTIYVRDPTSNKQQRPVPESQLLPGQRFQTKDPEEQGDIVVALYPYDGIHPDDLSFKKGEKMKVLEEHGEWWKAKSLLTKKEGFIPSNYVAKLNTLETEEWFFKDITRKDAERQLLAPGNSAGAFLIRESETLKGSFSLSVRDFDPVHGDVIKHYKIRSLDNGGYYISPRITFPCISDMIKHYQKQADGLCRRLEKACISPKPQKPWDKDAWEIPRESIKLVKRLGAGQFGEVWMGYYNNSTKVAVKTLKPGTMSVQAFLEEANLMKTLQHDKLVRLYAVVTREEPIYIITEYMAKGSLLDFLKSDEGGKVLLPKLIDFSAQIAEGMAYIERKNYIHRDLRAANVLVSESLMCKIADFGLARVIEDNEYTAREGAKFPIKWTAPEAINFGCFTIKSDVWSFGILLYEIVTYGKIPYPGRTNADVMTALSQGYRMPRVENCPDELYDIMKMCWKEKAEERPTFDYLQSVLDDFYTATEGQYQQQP
Epidermal growth factor receptor, sequence (P00533 whole entry): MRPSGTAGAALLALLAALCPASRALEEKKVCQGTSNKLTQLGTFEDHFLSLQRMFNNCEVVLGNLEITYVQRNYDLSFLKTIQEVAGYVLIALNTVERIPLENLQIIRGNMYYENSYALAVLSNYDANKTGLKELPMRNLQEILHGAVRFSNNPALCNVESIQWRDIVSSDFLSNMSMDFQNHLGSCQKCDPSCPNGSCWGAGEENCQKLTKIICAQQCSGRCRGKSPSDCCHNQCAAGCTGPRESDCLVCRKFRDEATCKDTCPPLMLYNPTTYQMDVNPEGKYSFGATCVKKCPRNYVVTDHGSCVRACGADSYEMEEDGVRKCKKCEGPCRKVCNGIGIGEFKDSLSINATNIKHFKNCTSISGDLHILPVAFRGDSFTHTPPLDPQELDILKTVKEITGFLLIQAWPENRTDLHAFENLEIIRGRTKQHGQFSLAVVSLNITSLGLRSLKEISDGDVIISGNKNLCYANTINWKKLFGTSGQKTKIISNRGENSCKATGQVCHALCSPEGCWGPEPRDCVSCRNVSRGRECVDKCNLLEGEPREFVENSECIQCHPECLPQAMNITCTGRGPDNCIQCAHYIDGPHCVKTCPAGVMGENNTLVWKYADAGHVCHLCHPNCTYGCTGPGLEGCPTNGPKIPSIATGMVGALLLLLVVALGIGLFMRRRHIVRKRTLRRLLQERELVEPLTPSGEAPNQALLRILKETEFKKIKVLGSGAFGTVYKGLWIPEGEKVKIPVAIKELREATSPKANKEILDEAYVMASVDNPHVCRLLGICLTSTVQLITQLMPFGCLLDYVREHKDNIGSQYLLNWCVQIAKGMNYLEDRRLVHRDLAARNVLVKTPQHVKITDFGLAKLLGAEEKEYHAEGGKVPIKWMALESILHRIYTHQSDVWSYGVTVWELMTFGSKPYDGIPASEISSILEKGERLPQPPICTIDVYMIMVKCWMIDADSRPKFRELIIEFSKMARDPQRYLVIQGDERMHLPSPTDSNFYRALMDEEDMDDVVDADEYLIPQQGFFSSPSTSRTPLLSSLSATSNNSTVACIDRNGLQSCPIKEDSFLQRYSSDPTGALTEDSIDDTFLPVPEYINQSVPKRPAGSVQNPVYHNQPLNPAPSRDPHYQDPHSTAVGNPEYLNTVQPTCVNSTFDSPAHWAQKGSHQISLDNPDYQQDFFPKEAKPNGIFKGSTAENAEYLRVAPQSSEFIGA

With `C[C@@H](Nc1ncnc2sc(-c3ccc(C(=O)NCCN(C)C)cc3)cc12)c1ccccc1`, the inhibition in [1] was 11%; in [3] it was 10%; in [4] it was -6%; in series [5], -10%; in series [6], 0%; in series [7], 38%. Further, the inhibition in [8] is 1%; in series [9], 41%; in series [10], -6%; in series [11], -5%; in series [12], 3%; in series [13], 6%. In addition, the inhibition in series [14] is 18%; in series [15], 1%; in [16], 7%; in series [17], 7%; in series [18], 7%; in [19] it was 3%. Also, the values for the inhibition in series [20] and in series [21] were 19% and 3%, respectively. The pIC50 in series [2] was 8.70.
On to `C#Cc1cccc(Nc2ncnc3cc(OCCOC)c(OCCOC)cc23)c1` [ERLOTINIB], for which the inhibition in series [3] was 8%; in [4], -7%; in [5], 25%; in series [8], 75%; in series [11] it was -4%; in series [22], 11%. Also, the inhibition is 5% in [12]; 42% in series [14]; 17% in series [15]; -5% in series [16]; 13% in series [17]. In series [23], this molecule returned a half-life at 3 µM of 0.533 h.
Take `CN(C)CCNC(=O)c1ccc(-c2cc3c(N[C@H](CO)c4ccccc4)ncnc3s2)cc1`: the inhibition in series [1] is 1%; in [3], 13%; in series [4] it was -5%; in series [5], -3%; in series [7] it was 8%; in series [8], 27%. Further, the inhibition in series [9] is 37%; in [10], 0%; in series [11] it was 12%; in series [22], -3%; in series [12] it was 9%; in series [13], 12%. Also, the inhibition in [14] came to 17%; in [15], 5%; in series [16], 3%; in series [17], 9%; in series [18] it was 23%; in [19] it was 1%. Moreover, the inhibition stood at 23% in series [20] and 15% in series [21]. The molecule further had a pIC50 in series [2] of 8.70. For the same molecule, the half-life at 3 µM in [23] is 1.1 h.
With `COc1ccc(C(=O)NCCN(C)C)cc1-c1cc2c(N[C@H](C)c3ccccc3)ncnc2s1`, the inhibition in [1] is 0%; in [3], 3%; in [4], -8%; in series [5], -4%; in series [8], 6%; in [9], 62%. Further, the inhibition in series [10] is -2%; in series [11], 0%; in series [22], -9%; in series [12], -3%; in [13], 3%; in series [14], 9%. Also, the inhibition in [15] is -8%; in [16], 3%; in series [17], 8%; in [18], 2%; in series [19], -4%; in series [20] it was 8%. The inhibition in series [21] was 15%. In addition, the pIC50 in series [2] is 9.30. This molecule came in with a half-life at 3 µM in series [23] of 1.93 h.
For the molecule `C#Cc1cccc(Nc2ncnc3sc(-c4ccc(CO)cc4OC)cc23)c1`, the inhibition in series [1] is 2%; in series [3], 8%; in [4], -3%; in series [5], 6%; in series [6], -7%; in [7] it was 3%. Moreover, the inhibition in series [8] is -3%; in series [9] it was 9%; in [10], -8%; in series [11], -5%; in series [12], -1%; in [13] it was 3%. The inhibition in [14] is 15%; in series [15], -7%; in [16], -4%; in series [18], 16%; in series [19] it was 11%; in series [20], 0%. Besides, the inhibition in [21] was -4%. For the same molecule, the negative logarithm of the IC50 (pIC50) in [2] was 8.30.
Consider `COc1cc(CO)ccc1-c1cc2c(N[C@H](CO)c3ccccc3)ncnc2s1`, for which the inhibition was 8% in [1]; 5% in series [3]; 15% in series [4]; 9% in [5]; 14% in series [7]; 22% in [8]. For the same molecule, the inhibition in [9] was found to be 56%; in series [11], 1%; in [22] it was 3%; in series [12], 13%; in series [13], 18%; in [14] it was 9%. Besides, the inhibition in series [15] was found to be 1%; in series [16], 1%; in [17], 13%; in series [18], 10%; in series [19], 1%; in [20], 12%. Also, the inhibition in series [21] came to 20%. Further, the half-life at 3 µM in series [23] stood at 2.57 h.
As for `COc1cc(CO)ccc1-c1cc2c(N[C@H](C)c3ccccc3)ncnc2s1`, the inhibition came to 8% in series [1]; 7% in [3]; 1% in [4]; 7% in series [5]; 2% in series [7]; 7% in series [8]. Also, the inhibition worked out at 57% in series [9]; 1% in [11]; 15% in [22]; 1% in series [12]; 4% in [13]; 10% in [14]. Further, the inhibition in series [15] was 4%; in series [16], 10%; in series [17], 1%; in series [18], 8%; in series [19], 1%; in [20], 1%. In addition, the inhibition in series [21] was 7%.

Usually inhibition stands for the drop in the measured response relative to a control, in per cent. By pIC50 is commonly meant the negative decadic logarithm of the IC50, by convention in mol/L. A low value points to a large IC50. In general, half-life refers to the time in which the quantity being followed falls by half. A high value points to slow decline.
